Patent US8436159B2, “Glyphosate resistant class I 5-endolpyruvylshikimate-3-phosphate synthase (EPSPS)” (Monsanto Technology LLC, priority 2003, dated 2013)

Target: T1, maize (Zea mays) class I EPSPS variant TIPS (T102I, P106S), pMON70462 (Zea mays, UniProt O24566, P106S/T102I)
T1 construct: pMON70462
T1 sequence (O24566 1-444 T102I/P106S): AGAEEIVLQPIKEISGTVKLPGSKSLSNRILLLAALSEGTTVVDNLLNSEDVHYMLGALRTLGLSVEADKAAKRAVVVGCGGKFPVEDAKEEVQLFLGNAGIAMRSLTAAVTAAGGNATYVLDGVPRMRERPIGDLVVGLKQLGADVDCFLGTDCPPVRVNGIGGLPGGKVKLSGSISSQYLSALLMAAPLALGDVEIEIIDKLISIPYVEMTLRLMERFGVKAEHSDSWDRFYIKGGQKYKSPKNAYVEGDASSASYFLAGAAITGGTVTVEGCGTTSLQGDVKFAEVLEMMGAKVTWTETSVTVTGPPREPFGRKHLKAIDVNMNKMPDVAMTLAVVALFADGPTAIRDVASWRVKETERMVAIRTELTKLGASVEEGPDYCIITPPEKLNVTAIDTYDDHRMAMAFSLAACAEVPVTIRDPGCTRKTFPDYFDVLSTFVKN
Test: EPSPS steady-state kinetics, TIPS variant
Type: biochemical
Method: The wild type and variant EPSPS coding sequences were cloned into a pET-19b base vector (Novagen, Madison, Wis.). The plant (maize) class I EPSPS variants so created were assigned pMON plasmid numbers (Table 2). The variant EPSPS proteins were purified from the E. coli host using the protocols outlined in the pET system manual, 9th edition (Novagen) or by the following method. A single colony or a few microliters from a glycerol stock was inoculated into 4 mL LB medium containing 0.1 mg/mL carbenicillin antibiotic. The culture was incubated with shaking at 37 C for 4 hours. The cultures were stored at 4° C. overnight. The following morning, 1 mL of the overnight culture was used to inoculate 100 mL of fresh LB medium containing 0.1 mg/mL carbenicillin. The cultures were incubated with shaking at 37 C for 4-5 hours, then the cultures were placed at 4° C. for 5-10 minutes. The cultures were then induced with IPTG (1 mM final concentration) and incubated with shaking at 30 C for 4 hours or 20° C. overnight. The cells were harvested by centrifugation at 7000 rpm for 20 minutes at 4° C. The supernatant was removed and the cells were frozen at −70° C. until further use. The proteins were extracted by resuspending the cell pellet in BugBuster reagent (Novagen) using 5 mL reagent per gram of cells. […]

Compound: O=C(O)CNCP(=O)(O)O [glyphosate, N-phosphonomethylglycine]
- Ki: 58 ± 14 µM
